# Laboratory results from publication PMC6614837 (Nucleic Acids Research, 2019).
# Entries after “also recorded” stand apart in the source; their conditions may differ.
# Assays:
# P RNA [1] = assay: Gel-based activity assay, bipartite pre-tRNA substrate, P RNA alone; format: biochemical, T. maritima; conditions: 100 mM AmOAc, 10 mM MgCl2
# Protocol: For gel-based activity assays, reactions were prepared as described in the previous section (fluorescence activity assay), incubated for 1–15 min at 37–50°C, then loaded onto a denaturing 7 M urea–20% acrylamide gel in the case of the Mh substrate or 19% acrylamide (40% acrylamide/bisacrylamide 38.5:1.5) for the bipartite pre-tRNA substrate. The activity conditions for the gel reported in Figure 3A, to monitor the cleavage of the holoenzyme and P RNA, were under 100 mM AmOAc and 10 mM MgCl2. The gels (13 × 16 × 0.15 cm) were electrophoresed at 20 V/cm for 2–3 h. UV shadowing or ethidium bromide staining was used to visualize RNA cleavage. Detection of minihelix fluorescence was achieved without staining using a UV lamp with excitation at ∼254 nm.
# Figure 3. The inhibitors purpurin and hematein bind to the holoenzyme. (A) Top. […] Bottom. […] (B) The relative affinities of the inhibitors for the P RNA or the holoenzyme differ. Binding sensorgrams obtained by biolayer interferometry (BLI). P RNA or RNase P holoenzyme was immobilized on super streptavidin (SSA) biosensors through a 5′-biotinylated RNA oligonucleotide complementary to a region on the P1 stem of P RNA (see Materials and Methods). […] In contrast, gentian violet binds not only to P RNA but also to the Mh substrate (Supplementary Figure S16). (C) Molecular Dynamics (MD) simulations of RNase P protein in complex with the validated inhibitors. In each panel, semitransparent spheres represent the geometric center, over a 200 ns trajectory, of the corresponding tested compound. The 5′-leader (yellow) is shown for reference purposes only; it was not included in the simulation. Sphere color coding indicates the starting and final positions in blue and red, respectively. […] Purpurin's starting conformation corresponds to that observed in the crystal structure in complex with the P protein (PDB code: 6MAX. See Figure 5).
# P RNA [2] = assay: Biolayer interferometry binding to immobilized P RNA; design: species or system T. maritima; conditions: BLI, P RNA on SSA biosensors via biotinylated oligonucleotide
# Protocol: (§1) Real-time binding assays of the holoenzyme, P RNA, P protein, the substrate minihelix and the 5′-leader to individual compounds were performed by biolayer interferometry using an Octet RED96 system (ForteBio). For the holoenzyme or P RNA, a 5′ biotinylated RNA oligonucleotide with the sequence 5′biotin-CAUUCCAGACGAU was immobilized on Super Streptavidin (SSA) biosensors. Then, a modified P RNA or holoenzyme was added. The P RNA modification consisted of a sequence with part of the P1 stem sequence complementary to the biotinylated oligonucleotide (AUCGUCUGGA) (Supplementary Figure S23A). P1 is far from the active site or other regions involved in specific interactions (Supplementary Figure S23B) ([19]). The activity of this construct was indistinguishable from the wild-type holoenzyme. Alternatively, the holoenzyme was immobilized through the His-tagged P protein from T. maritima at 0.05 mg/ml (3.4 μM) on Ni-NTA biosensors. Control biosensors were used to subtract non-specific binding of compounds to the biosensor surface. All assay steps (immobilization, wash, baseline, association, and dissociation) were performed in 20 mM HEPES pH 7.4, 100 mM ammonium acetate, 10 mM MgCl2, 2.5% DMSO. The assays were performed on black bottom 96-well microplates (Greiner Bio-One 655209) in a total volume of 200 μl, at 30°C with orbital shaking at 1000 rpm. Experiments were controlled with the software Data Acquisition 8.2 (ForteBio, Inc.). Kinetic binding parameters were calculated using Data Analysis 8.2 (ForteBio, Inc.). After subtraction of reference biosensors, the binding curves were aligned to the X- and Y-axis and the association-dissociation inter-step curve in order to get a common baseline for the association and dissociation phases.
# Figure 3. The inhibitors purpurin and hematein bind to the holoenzyme. (A) Top. […] Bottom. […] (B) The relative affinities of the inhibitors for the P RNA or the holoenzyme differ. Binding sensorgrams obtained by biolayer interferometry (BLI). […]
# minihelix (Mh) = assay: Biolayer interferometry binding to biotinylated minihelix substrate; conditions: BLI
# Protocol: 3′-Biotinylated minihelix was purchased from Integrated DNA Technologies (IDT) (24-mer RNA sequence, 5′-[…]-3′-Biotin). The biotinylated minihelix was immobilized on Super Streptavidin (SSA) biosensors at a concentration of 10 μM. […] For the titration experiments, 10 μM of 3′-biotinylated minihelix was immobilized for 300 s on Super Streptavidin (SSA) biosensors, followed by a wash step of 100 s and association and dissociation steps of 200 s in the presence of 6 different concentrations of compound ranging from 500 to 15.6 μM. SSA biosensors with no minihelix were used to measure non-specific binding of compounds. All other parameters (buffer, instrument control, analysis) are as described above.
# Supplementary Figure 16. Binding assays monitor the interaction of compounds with the minihelix (Mh). Gentian violet and methylene blue bind in a dose-dependent relationship to the artificial minihelix substrate. […]
# interaction between the minihelix and (A) gentian violet (KD=8 µM ) and (B) methylene blue A 3′-biotinylated substrate minihelix at 10 µ M was immobilized on super streptavidin (SSA) biosensors for 300 s.
# Supplementary Figure 17. pre-tRNA displaces bound purpurin in a dose-response […]
# indicating a true competition between purpurin and pre-tRNA binding sites. […]
# P protein = biological target: T1, P protein (Thermotoga maritima, UniProt Q9X1H4); assay: Binding hindrance of the 5′ RNA leader to the P protein (BLI); design: species or system T. maritima; conditions: compound 100 μM, 5′ RNA leader 5 μM
# T1 construct: GST (cleaved yes); made in house; host or cells: E. coli BL21(DE3)pLysS
# T1 sequence (Q9X1H4 1-117): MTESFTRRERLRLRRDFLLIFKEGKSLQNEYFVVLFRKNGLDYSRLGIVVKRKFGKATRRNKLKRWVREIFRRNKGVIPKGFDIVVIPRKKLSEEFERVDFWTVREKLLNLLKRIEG
# Protocol: A 5′ RNA leader sequence with 10-bases 5′-GGAAAAAGAU-3′ was purchased from IDT and used at a concentration of 5 μM. This sequence is the same used to obtain the crystal structure of the RNase P holoenzyme ([19]). The His-tagged P protein was immobilized on Ni-NTA biosensors at 0.05 mg/ml (3.4 μM). […] The steps performed on the assay and their periods were: P protein immobilization (400 s), wash (100 s), baseline […] (1000 rpm), compound association (800 s), compound dissociation (200 s) (500 rpm), baseline (100 s), 5′ leader association (200 s), 5′ leader dissociation (200 s) (1000 rpm). The assay was performed at 30°C. The compounds were used at 100 μM throughout. All assay steps were performed in 20 mM HEPES pH 7.4, 100 mM ammonium acetate, 10 mM MgCl2, 5% DMSO.
# 5 ′ RNA leader. (A) Experimental design of 5′ RNA leader binding hindrance experiments. Figures B-F are based on the analysis region depicted in panel A, where association and dissociation of the 5′ RNA leader to the P protein (TmP) is measured over time. P protein at 3.5 µM was immobilized on Ni-NTA biosensors for 300 s, while compounds were assayed at 100 µM and the […]
# binding, in contrast with hematein (E) and purpurin (F).
# (1 picture or pasted object on this page, not shown here)
# RNase P holoenzyme = biological target: T2, RNase P holoenzyme (Thermotoga maritima, UniProt Q9X1H4); assay: Displacement of pre-tRNA from the holoenzyme (BLI); format: binding, T. maritima; conditions: holoenzyme on Ni-NTA biosensors, compound 0–400 μM, then pre-tRNA
# T2 construct: GST (cleaved yes); made in house; host or cells: E. coli BL21(DE3)pLysS
# T2 sequence (Q9X1H4 1-117): T1 sequence (Q9X1H4 1-117)
# Protocol: as §1
# Figure 4. Characterization of the inhibition of T. maritima RNase P by purpurin. (A) Best global fit for inhibition of RNase P in the presence of varying concentrations of fluorescent Mh substrate. […] Symbols represent the mean ± standard error as determined from three independent experiments at each concentration. See also Supplementary Figure S18. […] Binding sensorgrams obtained by biolayer interferometry (BLI). RNase P holoenzyme at 400 nM was immobilized on Ni-NTA. […] Binding sensorgrams obtained by biolayer interferometry (BLI). RNase P holoenzyme was immobilized on Ni-NTA biosensors, incubated with purpurin at varying concentrations (0–400 μM), and then the association and dissociation pre-tRNA was monitored. […] See also Supplementary Figure S17.
# [3] = biological target: T3, RNase P holoenzyme from Thermotoga maritima (Thermotoga maritima, UniProt Q9X1H4); assay: Real-time fluorescence-based (FRET) RNase P activity assay with minihelix (Mh) substrate; format: biochemical
# T3 construct: made in house
# T3 sequence (Q9X1H4 1-117): T1 sequence (Q9X1H4 1-117)
# Protocol: The reconstitution of the RNase P holoenzyme was performed as described in ([40],[19]). This protocol produces a homogeneous and functional ribozyme that can be crystallized by mixing P RNA and P protein in a 1:1.1 molar ratio in 1× TH buffer (33 mM Tris–HCl, 66 mM HEPES, pH 7.4) and 400 mM ammonium acetate (AmOAc). The mixture was heated to 95°C for 2 min in a water bath, then chilled on ice for 2 min, after which MgCl2 was added to a final concentration of 100 mM. […] This higher concentration was used in all experiments described herein. The holoenzyme was further incubated at 50°C for 10 min and 37°C for 40 min. The final concentration of holoenzyme was 333 nM (35.6 μg/ml of P RNA and 4.7 μg/ml of P protein).
# The minihelix (Mh) substrate (Figure 1A) was adopted from a previously characterized RNase P substrate, pMini3bpUG ([32],[33]) and coupled to either Black Hole Quencher 1 (BHQ1) or Black Hole Quencher 2 (BHQ2) at the 5′-end and Alexa Fluor 488 at the 3′-end. This probe was purchased either from Sigma-Aldrich or Integrated DNA Technologies (IDT). A requested scale of […] yielded between 6.3 and 20 nmol (57.5 to 181 μg, enough for 1300–4000 reactions depending on the experimental substrate concentration). Before use, the minihelix was diluted from a 100 μM stock (dissolved in water) to 3.6 μM in activity buffer H (33 mM Tris–HCl, 66 mM HEPES, pH 7.4, 400 mM AmOAc and 100 mM MgCl2).
# Reactions were performed in a total volume of 20 μl. Pipetting was done by hand using multichannel pipettes. First, an 18 μl reaction mixture containing 16.5 μl of activity buffer (H for Mh or L supplemented with 10% PEG 200 for bipartite pre-tRNA) and 270 nM (Mh) or 135 nM (bipartite pre-tRNA) (1.5 or 0.7 μl of the 3.6 μM stock) of the fluorescent substrate probe was pre-incubated on ice for at least 5 m in a black polystyrene 384-well microtiter microplate with a flat transparent bottom (Corning ref 3540). The holoenzyme was then added at a final concentration of 33 nM (2 μl of a 333 nM stock) in 1× TH buffer and mixed. Kinetic activity was monitored in a Synergy MX Multimode Detector (BioTek) at 37°C with rapid agitation. At least 20 readings were taken per well every 15 s. The probe was excited at 485 nm, and its emission was monitored at 535 nm with an integration time of 1 s. From the plots of relative fluorescent units (RFU) versus time, linear regression was used to determine the slopes in the linear portion of the curves, using at least 12 data points to obtain initial velocities. Non-linear fitting to obtain the Michaelis–Menten parameters was performed using GraphPad Prism® 6.01 software.
# Supplementary Figure 3. FRET assays of RNase P with the fluorescent substrate are reproducible. (A) Representative plots of kinetic assays performed in a single run. The standard assay (SA), (+), was performed at 37° C in a total volume of 20 µL and contained RNase P holoenzyme at 33 nM, substrate minihelix (Mh) at 270 nM, 10% DMSO and activity buffer (AB).
# The negative control assay (-) contained 100 mM CaCl2 in place of MgCl2. Ten to twelve wells were monitored simultaneously in a typical assay. (B) Zoomed view of the linear region of the kinetic assays shown in panel A. Fluorescence readings were performed every 15-20 seconds.
# Linear regression calculations were done using the GraphPad Prism 7 software. (C) The coefficient Z’-factor (1) was used as an indicator of reproducibility and was calculated based on the relative fluorescence units (RFU) in the plateau phase (taken at 20 minutes). The Z’-factor has a […]
# presented in this work were either measured in triplicate or confirmed in subsequent assays. (D) […]
# assay is robust. The IC50 values reported in Figures 1C and 2 were calculated according to this kinetic parameter. There is a negative drift in fluorescence in the case of the negative control.
# However, it should be noted that the mean value of it (-279) is much smaller than the signal of the […]
# positive control (3397). […]
# RNase P from E. coli = tested on: RNase P from E. coli; design: method as in PMID 24097434; conditions: cited from earlier work
# [4] = biological target: T4, RNase P protein (TmP, P protein) (Thermotoga maritima, UniProt Q9X1H4 1-117); assay: BLI; conditions: BLI (Octet RED96): 20 mM HEPES pH 7.4, 100 mM ammonium acetate, 10 mM MgCl2, 2.5-5% DMSO, 30 C; P protein:P RNA in 33 mM Tris, 66.6 mM HEPES, 200 mM ammonium …
# T4 sequence: T1 sequence (Q9X1H4 1-117)
compound,measurement,setting,value
"CN(C)c1ccc([C+](c2ccc(N(C)C)cc2)c2ccc(N(C)C)cc2)cc1.[Cl-] [Gentian violet, tris(4-(dimethylamino)phenyl)methylium chloride, reference compound]",Inhibition of the P RNA reaction,P RNA [1],inhibits the reaction via P RNA
same,Binding to P RNA,P RNA [2],binds more strongly to it
same,Kd,minihelix (Mh); 3′-biotinylated minihelix 10 μM on SSA biosensors,8 µM
same,Binding to the minihelix substrate,minihelix (Mh); initial screening at 1 mM and titration,binding signal; also recorded: binds to the biotinylated minihelix substrate in the micromolar range
same,Hindrance of 5′ RNA leader binding to the P protein,P protein,did not interfere with RNA leader
same,Hindrance of 5′ RNA leader binding to the P protein,P protein; listed as gentian violet,do not impede the leader binding
same,Dose–response displacement of pre-tRNA,RNase P holoenzyme,No
"Mh: 24-nucleotide minihelix RNase P model substrate with 5′ Black Hole Quencher and 3′ Alexa Fluor 488 (GAUCUGAAUGCGGAAACGCGCCAC; 5' BHQ quencher, 3' Alexa Fluor 488, further chemistry not given here)",kcat,[3]; Michaelis–Menten fit,0.112 s⁻¹
same,Km,"[3]; holoenzyme 11 nM, Michaelis-Menten fit",1.3 µM
same,kobs (previously reported),RNase P from E. coli,0.86 min⁻¹
same,Kd,RNase P from E. coli; read-out: KD (previously reported),2.8 µM
P RNA,Kd,[4],0.0005 µM
